Test results: US7833795B2, “Assessment of cardiovascular risk using isoprostane biomarkers and COX-2 selective inhibitors” (The Trustees of the University of Pennsylvania, priority 2004, dated 2010)

Columns and labels:
Male Fisher 344 rats [1] = experiment: Plasma MDA, TBA colorimetric assay with 3rd derivative spectroscopy; type: in vivo, rat; details: plasma
Method: (§1) Animals and treatment protocol: Male Fisher 344 rats (260-280 g) obtained from Charles River Laboratories (Raleigh, N.C.) were used in all experiments. The animals were housed three to a cage. Autoclaved hardwood bedding was used in solid-bottom polycarbonate cages with filter tops. Animal rooms were maintained at 20-25° C. with 35-70% relative humidity with alternating 12-hour light and dark cycles. The rats had free access to deionized, reverse-osmosis-treated water and received autoclaved NIH 31 rodent chow (Zeigler Bros., Gardners, Pa.) ad libitum. For all experiments, rats were fasted overnight and then administered intraperitoneal injections of carbon tetrachloride in canola oil. Control rats received an equal volume of canola oil. Fasting continued throughout the experiment. Rats were anesthetized with Nembutal (0.1 ml/100 g body weight) and 5 ml blood was removed from the dorsal aorta proximal to its bifurcation into the common iliac arteries.
(§2) Carbon tetrachloride (CCL4) treatment: Animals from each of the three dose groups (Control-canola oil, 120 mg/kg CCl4 i.p. and 1200 mg/kg CCl4 i.p.) were investigated at three time points (2, 7, and 16 hours after CCl4 injection). Indomethacin-pretreated rats were also investigated at the same three time points, and the meclofenamic acid-pretreated rats were investigated at one time point (7 hours). Each group consisted of five rats for each analysis, except the meclofenamic acid pretreatment group which consisted of six rats. Animal treatment, sample preparation, assessment of liver histology and serum enzyme activities are described elsewhere (Kadiiska et al., 2000, Free Radic. Biol. Med. 28: 838-845; Jackson, 1989, J. Pharmacol. Exp. Ther. 250: 9-21) and were carried out at NIEHS, Research Triangle Park, N.C.
(§3) Plasma sample preparation: Blood (5 ml) was drawn through single draw Vacutainer® needles (21 Gauge) into open Vacutainer® blood collection tubes containing heparin. The tubes were gently inverted 2-3 times for mixing and immediately placed on ice. Blood was centrifuged (2,000 rpm for 10 minutes at 4° C.) no more than 30 minutes after collection, and the plasma was collected, frozen on dry ice and stored at −70° C.
Two colorimetric-based assays, using third derivative spectroscopy, were also used to measure MDA in plasma. The TBA colorimetric assay is designed to measure free MDA and MDA-protein adducts (Schiff base), and therefore includes mild acid hydrolysis. The Bioxytech® LPO-586™ colorimetric assay is based upon the reaction of the chromogenic reagent N-methyl-2-phenylindole (NMPI) with MDA at 45° C. One molecule of free MDA combines with 2 molecules of the chromogenic agent to produce a stable chromophore with a maximal absorbance at 586 nm. In both assays, the concentration of MDA was determined with 3rd derivative spectroscopy. Both assays were developed by OXIS Research Inc., Portland, Oreg., and were performed at OXIS and at Loyola University Medical Center, Maywood, Ill.

Male Fisher 344 rats [2] = experiment: Urinary 8-OHdG by immunoassay; type: in vivo, rat; details: for 8-OHdG (by immunoassay): urine
Method: as §1, §2
Urine sample preparation: The day prior to treatment, both experimental and control animals were placed in stainless steel metabolic cages especially designed for urine collection. For Experimental Example 2, animals were placed in metabolic cages immediately after the last injection of indomethacin or meclofenamic acid. Urine was collected (in dark vials) from the animals during the following intervals: 2 to 7 hours and 7 to 16 hours after CCl4 or canola oil (controls) treatment. Urine samples from indomethacin-pretreated rats were collected from 2 to 7 hours and 7 to 16 hours after the injection of CCl4, whereas samples from meclofenamic-acid-pretreated rats were collected only from 2 to 7 hours after the injection. All urine samples were immediately frozen on dry ice and stored at −70° C.
8-Hydroxy-2′-deoxyguanosine (8-OHdG) was measured using an immunoassay. In brief, 8-OHdG was determined using a microtiter ELISA method where the test analyte competed with monoclonal antibody against 8-OHdG for 8-OHdG bound to the plate. After incubation and washing, an anti-mouse second antibody conjugated to horseradish peroxidase was used to determine the bound monoclonal antibody. The color yield is […] to the analyte concentration. Data reduction was by 4-parameter logistic curve fit. The assay was developed and measurements were performed by Oxis Research, Portland, Oreg.

Male Fisher 344 rats [3] = details: cited from earlier work
Male Fisher 344 rats [4] = experiment: Plasma lipid hydroperoxides (iodometric assay) after CCl4; type: in vivo, rat
Method: as §1, §2, §3
The second assay of plasma lipid hydroperoxides used iodometric spectrophotometric determination. Concentrations of lipid hydroperoxides were measured according to a slightly modified procedure of Cramer et al. (1991, Anal. Biochem. 193: 204-211) where plasma was treated to enzymatically hydrolyze lipids, and nonesterified fatty acid peroxides were then extracted with ethyl acetate. Extracted lipids were reacted with potassium iodide in citric acid and methylene chloride, and the resulting triiodide ion (I3^−) was measured spectrophotometrically. All measurements were done at the United States Environmental Protection Agency (EPA), Research Triangle Park, N.C.

Male Fisher 344 rats [5] = experiment: Plasma MDA by GC/NICI-MS; type: in vivo, rat; details: for MDA (by GC-M5): plasma
Method: as §1
Indomethacin pretreatment: The indomethacin regimen used has been previously shown to inhibit COX activity in rats by 90% (dose of 5 mg/kg s.c. 24 hours, 12 hours, and 2 hours prior to the injection of CCl4) (Jackson, 1989, J. Pharmacol. Exp. Ther. 250: 9-21). An additional booster dose was injected 8 hours after the last injection of CCl4 for the measurements performed 16 hours after treatment with CCl4.
as §2, §3
Plasma MDA concentrations were also measured by using gas chromatography/negative ion chemical ionization mass spectroscopy (GC/NICI-MS) as described by Yeo et al. (Yeo et al., 1994, Anal. Biochem. 220: 391-396). The stable isotope internal standard [^2H2] MDA and an antioxidant (2,6-tert-butyl-4-methylphenol) were added to the plasma samples. The samples were then incubated at room temperature in 6.6 mol H2SO4 for 10 minutes to hydrolyze the aldehydes from the proteins. Plasma MDA was converted to a stable pentafluorophenyl hydrazine derivative which was quantified by using the GC-MS in the negative chemical ionization mode. The assay was performed at Children's Hospital Oakland Research Institute, Oakland, Calif.

ClC(Cl)(Cl)Cl [CCl4, Carbon tetrachloride]
plasma MDA (Male Fisher 344 rats [1]; CCl4 120 mg/kg i.p., 2 h): 0.268 µM | plasma MDA (Male Fisher 344 rats [1]; CCl4 120 mg/kg i.p., 7 h): 0.209 µM | plasma MDA (Male Fisher 344 rats [1]; CCl4 120 mg/kg i.p., 16 h): 0.214 µM | plasma MDA (Male Fisher 344 rats [1]; CCl4 1200 mg/kg i.p., 2 h): 0.686 µM | plasma MDA (Male Fisher 344 rats [1]; CCl4 1200 mg/kg i.p., 7 h): 0.274 µM | plasma MDA (Male Fisher 344 rats [1]; CCl4 1200 mg/kg i.p., 16 h): 0.156 µM | 8-OHdG (by immunoassay) (Male Fisher 344 rats [2]; CCl4 120 mg/kg i.p., 7 h): 42 ng/mg creatinine | 8-OHdG (by immunoassay) (Male Fisher 344 rats [2]; CCl4 120 mg/kg i.p., 16 h): 83 ng/mg creatinine | 8-OHdG (by immunoassay) (Male Fisher 344 rats [2]; CCl4 1200 mg/kg i.p., 7 h): 165 ng/mg creatinine | 8-OHdG (by immunoassay) (Male Fisher 344 rats [2]; CCl4 1200 mg/kg i.p., 16 h): 60 ng/mg creatinine | increase of urinary 8-OHdG (Male Fisher 344 rats [2]; high dose CCl4, 7 h): 7 fold | increase of urinary 8-OHdG (Male Fisher 344 rats [2]; high dose CCl4, 16 h): 3 fold | serum liver enzyme activities (Male Fisher 344 rats [3]; CCl4 120 and 1200 mg/kg, 2, 7, 16 h): significant increase in many of the enzyme activities studied was observed at the high dose at 2 hours and for both doses at 7 and 16 hours | hepatic effects, histology (Male Fisher 344 rats [3]; both doses of CCl4, each time point): diffuse hepatocyte degeneration and infiltration of inflammatory cells associated with necrosis | LOOH (iodometric assay) (Male Fisher 344 rats [4]; CCl4 120 mg/kg i.p., 2 h): 0.30 µM | LOOH (iodometric assay) (Male Fisher 344 rats [4]; CCl4 120 mg/kg i.p., 7 h): 0.30 µM | LOOH (iodometric assay) (Male Fisher 344 rats [4]; CCl4 120 mg/kg i.p., 16 h): 0.56 µM | LOOH (iodometric assay) (Male Fisher 344 rats [4]; CCl4 1200 mg/kg i.p., 2 h): 1.42 µM | LOOH (iodometric assay) (Male Fisher 344 rats [4]; CCl4 1200 mg/kg i.p., 7 h): 0.40 µM | LOOH (iodometric assay) (Male Fisher 344 rats [4]; CCl4 1200 mg/kg i.p., 16 h): 0.39 µM | increase of plasma MDA (GC/NICI-MS) (Male Fisher 344 rats [5]; 7 hours after CCl4): 3 fold | MDA (by GC-M5) (Male Fisher 344 rats [5]; CCl4 120 mg/kg i.p., 2 h): 0.41 µM | MDA (by GC-M5) (Male Fisher 344 rats [5]; CCl4 120 mg/kg i.p., 7 h): 0.35 µM | MDA (by GC-M5) (Male Fisher 344 rats [5]; CCl4 120 mg/kg i.p., 16 h): 0.22 µM | MDA (by GC-M5) (Male Fisher 344 rats [5]; CCl4 1200 mg/kg i.p., 2 h): 1.35 µM | MDA (by GC-M5) (Male Fisher 344 rats [5]; CCl4 1200 mg/kg i.p., 7 h): 0.36 µM | MDA (by GC-M5) (Male Fisher 344 rats [5]; CCl4 1200 mg/kg i.p., 16 h): 0.23 µM | increase of plasma MDA compared to controls (GC/NICI-MS) (Male Fisher 344 rats [5]; higher dose of CCl4, 2 hours): 12 fold
